Where two headings read alike, the source gives them in different places.
What was measured:
Type in all cases: biochemical
[1] = molecular target: E. coli ligase (D-Ala-D-Ala ligase) (Escherichia coli, UniProt P07862); experiment: D-Ala-D-Ala ligase Ki determination (PK/LDH coupled assay), E. coli ligase
Excerpt: (§1) Inhibition of D-Ala-D-Ala ligase can be assayed for using the pyruvate kinase/lactate dehydrogenase (PK/LDH) assay described in Example 2, and as described in the literature (e.g., in Sarthy et al., Anal. Biochem., 254:288-290, 1997). In the bacterial cell wall synthesis process, the ligase catalyzes the conversion of adenosine triphosphate (ATP) to adenosine diphosphate (ADP) concurrent with the ligation of two D-alanine residues to form D-alanyl-D-alanine. PK then regenerates ATP from the ADP thus created simultaneously with the conversion of phosphopyruvate to pyruvate. LDH catalyzes the reduction of pyruvate to lactate by converting NADH to NAD^+. By monitoring the production rate of NAD^+ (e.g., using UV/Vis spectroscopy), D-Ala-D-Ala ligase activity can be ascertained.
(§2) The protein sequence for the enzyme D-ala-D-ala ligase has been determined in a variety of different bacterial species using standard techniques in biochemistry (see Table 5). The protein sequence from any species can be overexpressed in an appropriate host organism such as E. coli using standard molecular biology techniques. The ligase enzyme can be harvested, purified, and used in the above described assay for the determination of inhibitory activity.
(§3) The synthetic analogs of Example 1 were dissolved in dimethylsulfoxide (DMSO) at a concentration of 100 mM on the day of screening, using a vortex mixer and sonication if necessary for dissolution. The solutions were kept at room temperature until screening was completed.
(§4) A 10 mM NADH (Sigma) stock solution was prepared freshly on the day of screening by dissolving 32 μmol NADH in 3.2 ml double-distilled water. The NADH solution was kept on ice. Stock solutions containing 50 mM phosphoenolpyruvate (PEP; Sigma), 500 μM HERMES, 30 mM adenosine triphosphate (ATP; Sigma), 200 mM D-alanine (Sigma), and 4× core buffer (i.e., 400 mM Hepes, 40 mM magnesium chloride, and 40 mM potassium chloride), were also stored on ice. A stock solution of pyruvate kinase/lactate dehydrogenase (PK/LDH) was also obtained from Sigma.
(§5) Table of Final concentrations are dependent on the type of screening:
(§6) For each set of test compounds, two 96-well plates were used: an inhibitor plate and an enzyme plate. The test compounds correspond to rows A-G of the plates. Adenosine (Sigma) dissolved in DMSO, used as a control, corresponds to row H of each plate.
(§7) The enzyme solution was allowed to equilibrate to 25° C.
(§8) Dilutions were prepared in the inhibitor plate as follows: 50 μl DMSO was added to each well of columns 1-11, rows A-G, of the inhibitor plate. 50 μl DMSO were added to each well of columns 1-11, row H. 100 μl of the 100 mM test solutions were added to column 12, rows A-G (i.e., the first compound in row A, the second compound in row B, and so on). 100 μl of a 100 mM Adenosine solution was added to column 12, row H.
(§9) 50 μl of the test solution was transferred from column 12 in each row to column 11 of the a same row, mixing the solution with the DMSO. 50 μl of solution was then transferred from column 11 in each row to column 10 in the same row, 50 μl from column 10 was transferred to column 9, and so on, down to column 2. No solution was transferred to column 1. Multichannel pipettors were used in making the serial dilution.
(§10) 120 μl of the enzyme solution was added to each well of the enzyme plate.
(§11) The substrate solutions were brought to 25° C.
(§12) The analogs and enzymes were then incubated at 25° C. Since the reactions were initiated in columns, the analog addition is also in columns. At t=0 minutes, 5 μl analog was transferred from each well of columns 1-4 of the inhibitor plate to the corresponding well of the enzyme plate. At t=4 minutes, 5 μl analog was transferred from each well of columns 5-8 of the inhibitor plate to the corresponding well of the enzyme plate. At t=8 minutes, 5 μl analog was transferred from each well of columns 9-12 of the inhibitor plate to the corresponding well of the enzyme plate. The inhibitor plate was then frozen. […]

[2] = molecular target: Staph ligase (D-Ala-D-Ala ligase) (Staphylococcus aureus, UniProt Q5HEB7); experiment: D-Ala-D-Ala ligase Ki determination (PK/LDH coupled assay), Staph ligase
Excerpt: as §1, §2, §3, §4, §5, §6, §7, §8, §9, §10, §11, §12

[3] = molecular target: T1, Strep ligase (D-Ala-D-Ala ligase) (Streptococcus pneumoniae serotype 4, UniProt P0CB57); experiment: D-Ala-D-Ala ligase Ki determination (PK/LDH coupled assay), Strep ligase; conditions: for Ki: Ki/ATP, avg, read-out: Strep ligase Ki/ATP (uM) avg
T1 sequence (P0CB57 1-347): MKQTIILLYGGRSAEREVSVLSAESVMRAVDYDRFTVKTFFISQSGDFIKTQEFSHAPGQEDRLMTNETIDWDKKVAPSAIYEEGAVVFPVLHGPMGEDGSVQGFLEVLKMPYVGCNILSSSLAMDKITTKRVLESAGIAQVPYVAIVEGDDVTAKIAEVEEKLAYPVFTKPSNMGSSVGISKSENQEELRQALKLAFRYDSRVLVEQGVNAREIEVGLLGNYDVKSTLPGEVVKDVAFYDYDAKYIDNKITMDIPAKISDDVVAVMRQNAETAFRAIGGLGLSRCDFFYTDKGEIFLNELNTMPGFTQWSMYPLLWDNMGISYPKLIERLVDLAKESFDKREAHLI
Excerpt: as §1, §2, §3, §4, §5, §6, §7, §8, §9, §10, §11, §12

[4] = molecular target: H. Influenzae ligase (D-Ala-D-Ala ligase) (Haemophilus influenzae, UniProt P44405); experiment: D-Ala-D-Ala ligase Ki determination (PK/LDH coupled assay), H. influenzae ligase; conditions: for Ki: Ki/ATP, avg, read-out: H. Influenzae ligase Ki/ATP (uM) avg
Excerpt: as §1, §2, §3, §4, §5, §6, §7, §8, §9, §10, §11, §12

[5] = Table 1, read-out: Ki (E. coli ligase)/μM
[6] = Table 2, read-out: Staph ligase

Chain of H. Influenzae ligase (D-Ala-D-Ala ligase) (P44405 whole entry): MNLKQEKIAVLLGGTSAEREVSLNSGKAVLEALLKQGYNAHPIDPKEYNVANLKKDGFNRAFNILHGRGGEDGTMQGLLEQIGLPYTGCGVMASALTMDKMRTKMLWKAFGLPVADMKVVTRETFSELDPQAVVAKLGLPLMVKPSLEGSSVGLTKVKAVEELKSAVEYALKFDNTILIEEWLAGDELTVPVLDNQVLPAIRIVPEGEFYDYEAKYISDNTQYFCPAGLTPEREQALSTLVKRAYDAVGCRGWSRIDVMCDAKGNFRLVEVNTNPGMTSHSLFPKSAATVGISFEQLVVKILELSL
Chain of Staph ligase (D-Ala-D-Ala ligase) (Q5HEB7 whole entry): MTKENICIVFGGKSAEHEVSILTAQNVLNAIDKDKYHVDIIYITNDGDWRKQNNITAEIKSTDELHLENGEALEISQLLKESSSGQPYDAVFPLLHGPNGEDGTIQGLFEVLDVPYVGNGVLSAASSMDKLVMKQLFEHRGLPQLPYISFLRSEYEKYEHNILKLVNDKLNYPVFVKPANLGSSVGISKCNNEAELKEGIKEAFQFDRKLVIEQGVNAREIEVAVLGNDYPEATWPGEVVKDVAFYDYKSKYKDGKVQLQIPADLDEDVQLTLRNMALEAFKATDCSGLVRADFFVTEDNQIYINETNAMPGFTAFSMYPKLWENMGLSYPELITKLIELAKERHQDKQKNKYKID

Nc1nc(N)c2cnc(/C=C/c3ccccc3)nc2n1
Ki [1, 5]: 14 µM

Nc1nc(N)c2cnc(N[C@H]3CCN(Cc4ccccc4)C3)nc2n1
Ki [1, 5]: 13 µM

Nc1nc(N)c2cnc(NCCNC(=O)c3c(Cl)cccc3Cl)nc2n1
Ki [1, 5]: 12 µM

CN(Cc1cnc2ccccc2c1)c1ncc2c(N)nc(N)nc2n1
Ki [1, 5]: 1 µM

CN(Cc1cccc2ccccc12)c1ncc2c(N)nc(N)nc2n1
Ki [1, 5]: 3 µM

CCN(c1ncc2c(N)nc(N)nc2n1)[C@H](C)c1ccc(C)c2ccccc12 [—CH2CH3|CH3|R|CH3]
Ki [2, 6]: 71 µM
Ki ([1]; E. coli ligase (μM), Table 2): 0.102 µM

C[C@@H](c1cccc2ccccc12)N(C[C@@H](O)C(=O)O)c1ncc2c(N)nc(N)nc2n1 (racemic)
Ki ([2]; Table 4, Ki/ATP, avg, read-out: Staph ligase Ki/ATP (uM) avg): 7.8 µM
Ki ([1]; E. coli ligase Ki/ATP (uM) avg, Table 4, Ki/ATP, avg): 0.611 µM

Nc1nc(N)c2nc(CNc3cc(Cl)cc(Cl)c3)cnc2n1
Ki [1, 5]: 1 µM

CC(c1ccc(Cl)c2ccccc12)N(C)c1ncc2c(N)nc(N)nc2n1 (centres unmarked) [—CH3|CH3|R/S|Cl]
Ki [2, 6]: 4.9 µM
Ki ([1]; E. coli ligase (μM), Table 2): 0.201 µM

Nc1nc(N)c2cnc(CNC(=O)/C=C/c3ccccc3)nc2n1
Ki [1, 5]: 92 µM

CC(c1cccc2ccccc12)N(CCCN)c1ncc2c(N)nc(N)nc2n1 (centres unmarked)
Ki ([3]; Table 5): 81.2 µM
Ki ([2]; Table 5, Ki/ATP, avg, read-out: Staph ligase Ki/ATP (uM) avg): 46 µM
Ki ([1]; E. coli ligase Ki/ATP (uM) avg, Table 5, Ki/ATP, avg): 0.457 µM
Ki ([4]; Table 5): 5.5 µM

CC(c1cccc2ccccc12)N(CC(O)C(=O)O)c1ncc2c(N)nc(N)nc2n1 (centres unmarked)
Ki [1, 5]: 0.5 µM

CC1C(C)N(c2ncc3c(N)nc(N)nc3n2)C(C)C(C)N1c1ncc2c(N)nc(N)nc2n1 (centres unmarked)
Ki [1, 5]: 2 µM

CN(Cc1cc2ccccc2s1)c1ncc2c(N)nc(N)nc2n1
Ki [1, 5]: 2.9 µM

CCOc1ccc2ccccc2c1CN(CCC(=O)NCCN)c1ncc2c(N)nc(N)nc2n1
S. pneumoniae ligase activity (in words) [3]: single digit micromolar
Ki ([3]; Table 3): 1.9 µM
S. aureus ligase activity (in words) [2]: single digit micromolar
Ki ([2]; Table 3, Ki/ATP, avg, read-out: Staph ligase Ki/ATP (uM) avg): 4.7 µM
Ki for E. coli ligase (in words) [1]: less than one micromolar
Ki ([1]; E. coli ligase Ki/ATP (uM) avg, Table 3, Ki/ATP, avg): 0.7 µM
Ki for H. influenzae ligase (in words) [4]: less than one micromolar
Ki ([4]; Table 3): 1 µM

Nc1nc(N)c2cnc(N3CCC(O)(c4cccc(F)c4)CC3)nc2n1
Ki [1, 5]: 0.59 µM

Nc1nc(N)c2cnc(Nc3ccc(Cl)c(C(=O)NCc4cccs4)c3)nc2n1
Ki [1, 5]: 0.5 µM

Cc1ccc(C(C)C)cc1OCc1ncc2c(N)nc(N)nc2n1
Ki [1, 5]: 20 µM

Nc1nc(N)c2cnc(N3C4CC3N4c3ccc(Cl)cc3)nc2n1
Ki [1, 5]: 12 µM

CC(Nc1ncc2c(N)nc(N)nc2n1)C(=O)Nc1ccc2ccccc2c1 (centres unmarked)
Ki [1, 5]: 29 µM

CC(C)c1nc2nc(N)nc(N)c2nc1C(C)C
Ki [1, 5]: 37 µM

CN(CCC=C1c2ccccc2CCc2ccccc21)c1ncc2c(N)nc(N)nc2n1
Ki [1, 5]: 9 µM
